Test results taken from US8338607B2, “Cyclic amine compounds and agents for pest control” (Nippon Soda Co., Ltd., priority 2005, dated 2012).

How the values were obtained:
[1] = tested on: Tetranychus urticae; assay: Effectiveness against Tetranychus urticae (common bean leaf, wettable powder drug solution); assay type: in vivo; details: adult female Tetranychus urticae resistant to organophosphorus pesticides; 125 ppm; examined 3 days after the application; 25° C., 65% humidity
[2] = tested on: Panonychus citri; assay: Effectiveness against Panonychus citri (mandarin orange leaf, emulsion applied with rotary spreading tower); assay type: in vivo; details: adult female Panonychus citri; 125 ppm; adults removed 3 days after the application; whether eggs could grow to adults examined on the 11th day
Procedure: 10 adult female Panonychus citri were inoculated on the leaf of a mandarin orange, which was placed in a petri dish. After the inoculation, the drug solution, which was prepared by following the method of the emulsion shown in Example 2 of the drugs and by diluting with water to achieve the compound concentration of 125 ppm, was applied using a rotary spreading tower. The dish was placed in a temperature-controlled room where the temperature and humidity were set to 25° C. and 65% respectively, adults were removed 3 days after the application, and whether eggs laid during these 3 days could grow to become adults was examined on the 11th day.

SMILES | insecticidal rate (adulticidal rate) [1] | insecticidal rate [2]
CCCOc1cc(C(F)(F)F)ccc1OC1CC2CCC(C1)N2c1ccc(C(F)(F)F)c(F)c1 (stereo not drawn) [Compound 4-70] | 100% | 100%
FC(F)(F)c1ccc(OC2CC3CCC(C2)N3c2ccc(C(F)(F)F)cn2)nc1 (stereo not drawn) [Compound 2-3, 3α-(5-trifluoromethyl-2-pyridyloxy)-8-(5-trifluoromethyl-pyridine-2-yl)-8-azabicyclo[3.2.1]octane] | 100% | 
